Values quoted from earlier work in PMC7321301, “Characteristics of New Peptides GQLGEHGGAGMG, GEHGGAGMGGGQFQPV, EQGFLPGPEESGR, RLARAGLAQ, YGNPVGGVGH, and GNPVGGVGHGTTGT as Inhibitors of Enzymes Involved in Metabolic Syndrome and Antimicrobial Potential” (Molecules, 2020).
Like-named read-outs stand apart in the source and are kept apart here. No end group written: not given here.

Legend:
ACE = settings: cited from earlier work
α-amylase = settings: no reference given; cited from earlier work

C[C@H](CS)C(=O)N1CCC[C@H]1C(=O)O [Captropril]
type of ACE inhibition (ACE): competitive inhibitor

C[C@H]1O[C@H](O[C@H]2[C@H](O)[C@@H](O)[C@@H](O[C@H]3[C@H](O)[C@@H](O)C(O)O[C@@H]3CO)O[C@@H]2CO)[C@H](O)[C@@H](O)[C@@H]1N[C@H]1C=C(CO)[C@@H](O)[C@H](O)[C@H]1O (stereo partly shown) [acarbose]
type of α-amylase inhibition (α-amylase): competitive inhibition

AFKDEDTEEVPFR
ACE inhibitory IC50 (ACE): 127 µg/mL

GKHVAVHAR [GHA-8]
ACE inhibitory activity (ACE): exhibited ACE inhibitory activity

GKPVAVPA [GA-8]
ACE inhibitory activity (ACE): exhibited ACE inhibitory activity

TTFHTSGY
type of ACE inhibition (ACE; inhibition kinetic analysis): competitive inhibitor

Thα1: peptide Thα1, ACE inhibitory, from another study (SDAAVDTSSEITTKDLKEKKEVVEEAEN; ends and bridges not checked; UniProt P06454 2-29, looked up)
ACE inhibitory IC50 (ACE): 2.5 µg/mL
